Data taken from PubChem BioAssay AID248 (DTP/NCI, 2004).
“And” between values parts separate entries of the source, which are not always exact repeats. Equal entries are not always repeated. Inconclusive results and toxic doses are left out. Rule as the data show it: active = T/C of 150% or more; inactive = T/C below 125%.

Tested on: L1210 leukemia ip in BDF1 mice, survival T/C
Assay: NCI In Vivo Anticancer Drug Screen. Data for tumor model L1210 Leukemia (intraperitoneal) in B6D2F1 (BDF1) mice
Details: endpoint: mean survival time, higher = longer survival
Method in brief: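 Tumor cells were implanted, animals were treated, and survival was followed. The result divides the treated measurement by the vehicle-control measurement.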

[1] = dose: 50.0 mg/kg/injection, schedule: Q01DX001 (ip), vehicle: saline
[2] = dose: 100.0 mg/kg/injection, schedule: Q04DX002 (ip), vehicle: Klucel (hydroxypropylcellulose) (HPC)
[3] = dose: 200.0 mg/kg/injection, schedule: Q04DX002 (ip), vehicle: Klucel (hydroxypropylcellulose) (HPC)
[4] = dose: 100.0 mg/kg/injection, schedule: Q01DX001 (ip), vehicle: saline
[5] = dose: 200.0 mg/kg/injection, schedule: Q01DX001 (ip), vehicle: saline
[6] = dose: 400.0 mg/kg/injection, schedule: Q01DX001 (ip), vehicle: saline
[7] = dose: 25.0 mg/kg/injection, schedule: Q01DX009 (ip), vehicle: Klucel (hydroxypropylcellulose) (HPC)
[8] = dose: 50.0 mg/kg/injection, schedule: Q04DX003 (ip), vehicle: Klucel (hydroxypropylcellulose) (HPC)
[9] = dose: 100.0 mg/kg/injection, schedule: Q01DX009 (ip), vehicle: Klucel (hydroxypropylcellulose) (HPC)
[10] = dose: 100.0 mg/kg/injection, schedule: Q04DX003 (ip), vehicle: Klucel (hydroxypropylcellulose) (HPC)
[11] = dose: 200.0 mg/kg/injection, schedule: Q04DX003 (ip), vehicle: Klucel (hydroxypropylcellulose) (HPC)
[12] = dose: 200.0 mg/kg/injection, schedule: Q01DX009 (ip), vehicle: Klucel (hydroxypropylcellulose) (HPC)
[13] = dose: 100.0 mg/kg/injection, schedule: Q04DX003 (ip), vehicle: saline with Tween-80
[14] = dose: 200.0 mg/kg/injection, schedule: Q04DX003 (ip), vehicle: saline with Tween-80
[15] = dose: 100.0 mg/kg/injection, schedule: Q01DX001 (ip), vehicle: Klucel (hydroxypropylcellulose) (HPC)
[16] = dose: 200.0 mg/kg/injection, schedule: Q01DX001 (ip), vehicle: Klucel (hydroxypropylcellulose) (HPC)
[17] = dose: 400.0 mg/kg/injection, schedule: Q01DX001 (ip), vehicle: Klucel (hydroxypropylcellulose) (HPC)

Measured: T/C

NCC1C2CC3CC(C2)CC1C3 (stereo not given)
inactive: dose: 12.5 mg/kg/injection, schedule: Q01DX001 (ip), vehicle: saline 106 % of control | dose: 25.0 mg/kg/injection, schedule: Q01DX001 (ip), vehicle: saline 97 % of control | [1] 93 % of control | [2] 98 % of control | [3] 96 % of control

Cc1cc(NC(=O)c2ccc(C(=O)Nc3cc(C)nc4ccccc34)cc2)c2ccccc2n1
inactive: dose: 100.0 mg/kg/injection, schedule: Q01DX001 (ip), vehicle: other 102 % of control

COc1c2occc2c(OC)c2c(=O)cc(/C=C/c3cccnc3)oc12
inactive: [4] 97 % of control | [5] 101 % of control | [6] 101 % of control

NC(CCl)=NCC1CCCCCCC1
inactive: [7] 103 % of control | dose: 25.0 mg/kg/injection, schedule: Q04DX002 (ip), vehicle: Klucel (hydroxypropylcellulose) (HPC) 100 % of control | dose: 50.0 mg/kg/injection, schedule: Q04DX002 (ip), vehicle: Klucel (hydroxypropylcellulose) (HPC) 107 % of control | [2] 101 % of control and 89 % of control

COC(=O)C1CN(S(=O)(=O)c2ccccc2)c2ccccc2N1S(=O)(=O)c1ccccc1 (stereo not given)
inactive: dose: 100.0 mg/kg/injection, schedule: Q04DX003 (ip), vehicle: acetone 95 % of control | dose: 200.0 mg/kg/injection, schedule: Q04DX003 (ip), vehicle: acetone 100 % of control | dose: 400.0 mg/kg/injection, schedule: Q04DX003 (ip), vehicle: acetone 94 % of control

N#Cc1cnc(N)cc1N
inactive: [7] 96 % of control | dose: 25.0 mg/kg/injection, schedule: Q04DX003 (ip), vehicle: Klucel (hydroxypropylcellulose) (HPC) 97 % of control | dose: 50.0 mg/kg/injection, schedule: Q01DX009 (ip), vehicle: Klucel (hydroxypropylcellulose) (HPC) 98 % of control | [8] 100 % of control | [9] 104 % of control | [10] 101 % of control and 104 % of control | [11] 113 % of control

S=C(NCc1cccc2ccccc12)Nc1ccccc1
inactive: [9] 95 % of control | [12] 97 % of control | dose: 400.0 mg/kg/injection, schedule: Q01DX009 (ip), vehicle: Klucel (hydroxypropylcellulose) (HPC) 104 % of control

Cc1n(C(C)C)c2c([n+]1C)C(=O)c1ccccc1C2=O
inactive: dose: 0.39 mg/kg/injection, schedule: Q01DX009 (ip), vehicle: saline 106 % of control | dose: 0.78 mg/kg/injection, schedule: Q01DX009 (ip), vehicle: saline 98 % of control | dose: 1.56 mg/kg/injection, schedule: Q01DX009 (ip), vehicle: saline 101 % of control | dose: 1.56 mg/kg/injection, schedule: Q04DX003 (ip), vehicle: acetone 95 % of control | dose: 2.33 mg/kg/injection, schedule: Q01DX009 (ip), vehicle: acetone 88 % of control | dose: 3.54 mg/kg/injection, schedule: Q01DX009 (ip), vehicle: acetone 92 % of control

O=S(=O)(O)c1ccc(O)c2ncccc12.[Zn+2]
inactive: [1] 100 % of control | [4] 97 % of control | [5] 97 % of control | [6] 100 % of control

O=C1OCC/C1=C/OCCCCCO/C=C1/CCOC1=O
inactive: [2] 106 % of control | [3] 97 % of control | dose: 400.0 mg/kg/injection, schedule: Q04DX002 (ip), vehicle: Klucel (hydroxypropylcellulose) (HPC) 90 % of control

C[N+](C)(C)CCOC(=O)C1C2CC3OC(=O)C1C3C2 (stereo not given)
inactive: dose: 100.0 mg/kg/injection, schedule: Q04DX003 (ip), vehicle: saline 98 % of control | dose: 200.0 mg/kg/injection, schedule: Q04DX003 (ip), vehicle: saline 102 % of control | dose: 400.0 mg/kg/injection, schedule: Q04DX003 (ip), vehicle: saline 96 % of control

CCC(C)C(CN)(CCCCN(C)C)c1cccc2ccccc12 (stereo not given)
inactive: [13] 97 % of control | [14] 100 % of control

CCOC(=O)CCCCSCCCCC(=O)OCC
inactive: dose: 100.0 mg/kg/injection, schedule: Q01DX009 (ip), vehicle: saline with Tween-80 91 % of control | dose: 200.0 mg/kg/injection, schedule: Q01DX009 (ip), vehicle: saline with Tween-80 101 % of control | dose: 400.0 mg/kg/injection, schedule: Q01DX009 (ip), vehicle: saline with Tween-80 102 % of control

CCOC(=O)c1cn(C2OC(COC(=O)c3ccccc3)C(OC(=O)c3ccccc3)C2OC(=O)c2ccccc2)c(=O)nc1Nc1ccccc1Cl (stereo not given)
inactive: dose: 25.0 mg/kg/injection, schedule: Q01DX005 (ip), vehicle: saline 104 % of control | dose: 50.0 mg/kg/injection, schedule: Q01DX005 (ip), vehicle: saline 105 % of control | dose: 75.0 mg/kg/injection, schedule: Q01DX005 (ip), vehicle: saline 105 % of control | dose: 100.0 mg/kg/injection, schedule: Q01DX005 (ip), vehicle: saline 123 % of control | dose: 200.0 mg/kg/injection, schedule: Q01DX005 (ip), vehicle: saline 92 % of control

O=C(Nc1cccc(C2=NCCN2)c1)c1ccc(C(=O)Nc2cccc(C3=NCCN3)c2)cc1
inactive: dose: 2.5 mg/kg/injection, schedule: Q01DX Z (ip), vehicle: saline 95 % of control | dose: 5.0 mg/kg/injection, schedule: Q01DX Z (ip), vehicle: saline 111 % of control

CCCc1cc(CN2CCOCC2)c(O)c(CN2CCOCC2)c1O
inactive: [4] 91 % of control | [5] 93 % of control | [6] 95 % of control

CCC(=O)OCCOc1ccc(C(C)(C)C)cc1
inactive: dose: 50.0 mg/kg/injection, schedule: Q04DX002 (ip), vehicle: saline 98 % of control | dose: 100.0 mg/kg/injection, schedule: Q01DX009 (ip), vehicle: saline 98 % of control | dose: 100.0 mg/kg/injection, schedule: Q04DX002 (ip), vehicle: saline 94 % of control | dose: 200.0 mg/kg/injection, schedule: Q01DX009 (ip), vehicle: saline 103 % of control | dose: 200.0 mg/kg/injection, schedule: Q04DX002 (ip), vehicle: saline 91 % of control

CCCCCCCCCCCCCCCCOc1c(Br)cc(Br)cc1Br
inactive: [15] 87 % of control | [16] 90 % of control | [17] 105 % of control

O=C(Nc1ccc(Br)cc1C(F)(F)F)C(F)(F)F
inactive: [8] 102 % of control | [15] 100 % of control | [10] 104 % of control | [16] 94 % of control | [11] 112 % of control | [17] 97 % of control | dose: 400.0 mg/kg/injection, schedule: Q04DX003 (ip), vehicle: Klucel (hydroxypropylcellulose) (HPC) 105 % of control

NS(=O)(=O)c1ccc(S(=O)(=O)NC2CCCCC2)cc1
inactive: [9] 101 % of control | [12] 101 % of control

Cc1ccc(/C=N/NC(=O)c2ccc(N=NN(C)C)cc2)cc1
inactive: [8] 95 % of control | [10] 99 % of control | [11] 100 % of control

CCCCC(O)(CCCC)C(CC)CC
inactive: [13] 108 % of control | [14] 99 % of control | dose: 400.0 mg/kg/injection, schedule: Q04DX003 (ip), vehicle: saline with Tween-80 101 % of control
